Columns and labels:
[1] = test system: breast MCF-7 cancerous cell line; assay: MTT cytotoxicity assay; conditions: Homo sapiens, MCF7, 24 h, read-out: IC50 (μM) MCF-7
Procedure: The MTT colorimetric method, a frequently utilized assay for detecting the in vitro cytotoxic activities of drugs, was chosen to evaluate the cytotoxic action of the imidazolone-sulphonamide-pyrimidine hybrids 5a–l and 6a,b in hands against breast MCF-7 adenocarcinoma cell line, and they were compared to Dox as the positive control.
under 5% CO2. After incubation, the cells were treated with different concentrations of the test imidazolone hybrids 5a-l and 6a,b and incubated for 24 h, then 20 l of MTT

EGFR-TK = target: T1, EGFR-TK (Homo sapiens, UniProt P00533); assay: EGFR kinase inhibitory assay (BPS Bioscience EGFR Kinase Assay Kit); format: biochemical; conditions: mean of three replicates; read-out: IC50 on EGFR enzyme
T1 construct: purchased BPS Bioscience 40321
Procedure: S4.2.1. Cytotoxic activity evaluation […]
adenocarcinoma (MCF-7) cell line. Cell viability assay was assessed using MTT assay […]
under 5% CO2. After incubation, the cells were treated with different concentrations of the test imidazolone hybrids 5a-l and 6a,b and incubated for 24 h, then 20 µl of MTT […]
(DMSO) in volume of 100 µl was added to each well to dissolve the purple formazan that had formed. The color intensity of the formazan product, which represents the […]
USA) at 570 nm absorbance. The experimental conditions were carried out with at least three replicates, and the experiments were repeated at least three times.
S4.2.2. EGFR kinase Assay […]
activity according to manufacturer’s instructions using # BPS Bioscience EGFR

Bcl-2 = assay: qRT-PCR expression of pro-survival Bcl-2 in MCF-7 cells; format: cell-based; conditions: IC50 concentration, 48 h, MCF-7, decline
Excerpt: (§1) The Bcl-2 family members are essential in determining whether a cell will survive or perish since they reside upstream of the irreversible cellular damage.[40] Two groups of the Bcl-2 family proteins are distinguished by pro-survival (e.g. Bcl-2) or pro-apoptotic (Bax) activity.[41] The pro-apoptotic factors promote cellular death. When Bcl-2-associated x-protein (Bax) homodimerizes it enhances apoptosis. The anti-apoptotic effect of Bcl-2 may be due to its ability to inhibit Bax homodimerization.[42,43] […] It is noteworthy, that the level of pro-survival Bcl-2 protein declined by 0.28-fold compared to the control untreated cells. […] These findings support that 4-(furan-2-ylmethylene)imidazolone-sulphonamide-pyrimidine hybrid 6b induces apoptosis by regulating the expression of Bcl-2 family proteins.
(§2) Fig. 5 Roles of Bcl-2 family protein in apoptosis induced by 4-(furan-2-ylmethylene)imidazolone-sulphonamide-pyrimidine hybrid 6b. (A) Pro-survival Bcl-2 protein; (B) pro-apoptotic Bax protein. Cells underwent treatment with an IC50 concentration of imidazolone hybrids 6b for 48 h and the expression of apoptosis-related proteins was examined by qRT-PCR assay.

MCF-7 cells [2] = assay: Cell cycle analysis by flow cytometry (PI); format: cell-based; conditions: 1.05 μM (IC50), 48 h
Procedure: The impact of the best potent hybrid molecule on the cellular cycle distribution was further evaluated on the MCF-7 cell line.
S4.2.3. Cell cycle analysis of compound 6b
Cell cycle analysis in MCF-7 cells was investigated using fluorescent Annexin V-FITC/ PI detection kit (BioVision EZCellTM Cell Cycle Analysis Kit Catalog #K920) by flow cytometry assay. MCF-7 cells at a density of 2 × 10^5 per well were harvested and washed twice in PBS. After that, the cells were incubated at 37 °C and 5% CO2. The medium was incubated with the tested compound 6b at the IC50 (µM) for 48 h, washed twice in PBS, fixed with 70% ethanol, rinsed again with PBS. Afterward, medium was stained with DNA fluorochrome PI for 15 min at 37 °C. The samples were immediately analyzed using Facs Calibur flow cytometer (Becton and Dickinson, Heidelberg, […]
S4.2.4. Apoptosis assay for compound 6b
(1 picture or pasted object on this page, not shown here)

Bax = assay: qRT-PCR expression of pro-apoptotic Bax in MCF-7 cells; format: cell-based; conditions: IC50 concentration, 48 h, MCF-7, increase
Excerpt: as §1, §2

MCF-7 cells [3] = assay: Annexin V-FITC/PI apoptosis assay by flow cytometry; format: cell-based; conditions: IC50 concentration, 48 h
Excerpt: Apoptosis, a form of programmed cellular death, is a widespread phenomenon, occurring in processes such as morphogenesis, growth and development as well as normal turnover in adult tissue.[35] Most cells are programmed to die if survival signals are not received regularly from their environment.[36] It can be initiated by endogenous tissue-specific agents such as cytokines or exogenous cell-damaging agents such as chemicals.[37] It is evidenced from the literature that exposure to EGFR-TK inhibitors leads to cellular apoptosis.[38] Thus, the effect of examined 4-(furan-2-ylmethylene)imidazolone-sulphonamide-pyrimidine hybrid 6b on the apoptosis of the MCF-7 cells was assessed utilizing Annexin V-FITC/PI double labeling followed by flow cytometry (Fig. 4). […] 4-(furan-2-ylmethylene)imidazolone-sulphonamide-pyrimidine hybrid 6b induced 46.1% apoptosis in the MCF-7 cancer cells. Thus, it is evident that this compound had substantial apoptosis-inducing action against the MCF-7 breast cancerous cell line.
Apoptosis in MCF-7 cells was investigated using fluorescent Annexin V-FITC/ PI detection kit (BioVision Annexin V-FITC Apoptosis Detection Kit, Catalog #: K101) by flow cytometry assay. MCF-7 cells at a density of 2 × 10^5 per well were treated with compound 6b at the IC50 (µM) for 48 h, then the cells were harvested and stained with Annexin V-FITC/ PI dye for 15 min in the dark at 37 °C. The samples were immediately analyzed using FACS Calibur flow cytometer (Becton and Dickinson, […]

T1 sequence (P00533 25-1210): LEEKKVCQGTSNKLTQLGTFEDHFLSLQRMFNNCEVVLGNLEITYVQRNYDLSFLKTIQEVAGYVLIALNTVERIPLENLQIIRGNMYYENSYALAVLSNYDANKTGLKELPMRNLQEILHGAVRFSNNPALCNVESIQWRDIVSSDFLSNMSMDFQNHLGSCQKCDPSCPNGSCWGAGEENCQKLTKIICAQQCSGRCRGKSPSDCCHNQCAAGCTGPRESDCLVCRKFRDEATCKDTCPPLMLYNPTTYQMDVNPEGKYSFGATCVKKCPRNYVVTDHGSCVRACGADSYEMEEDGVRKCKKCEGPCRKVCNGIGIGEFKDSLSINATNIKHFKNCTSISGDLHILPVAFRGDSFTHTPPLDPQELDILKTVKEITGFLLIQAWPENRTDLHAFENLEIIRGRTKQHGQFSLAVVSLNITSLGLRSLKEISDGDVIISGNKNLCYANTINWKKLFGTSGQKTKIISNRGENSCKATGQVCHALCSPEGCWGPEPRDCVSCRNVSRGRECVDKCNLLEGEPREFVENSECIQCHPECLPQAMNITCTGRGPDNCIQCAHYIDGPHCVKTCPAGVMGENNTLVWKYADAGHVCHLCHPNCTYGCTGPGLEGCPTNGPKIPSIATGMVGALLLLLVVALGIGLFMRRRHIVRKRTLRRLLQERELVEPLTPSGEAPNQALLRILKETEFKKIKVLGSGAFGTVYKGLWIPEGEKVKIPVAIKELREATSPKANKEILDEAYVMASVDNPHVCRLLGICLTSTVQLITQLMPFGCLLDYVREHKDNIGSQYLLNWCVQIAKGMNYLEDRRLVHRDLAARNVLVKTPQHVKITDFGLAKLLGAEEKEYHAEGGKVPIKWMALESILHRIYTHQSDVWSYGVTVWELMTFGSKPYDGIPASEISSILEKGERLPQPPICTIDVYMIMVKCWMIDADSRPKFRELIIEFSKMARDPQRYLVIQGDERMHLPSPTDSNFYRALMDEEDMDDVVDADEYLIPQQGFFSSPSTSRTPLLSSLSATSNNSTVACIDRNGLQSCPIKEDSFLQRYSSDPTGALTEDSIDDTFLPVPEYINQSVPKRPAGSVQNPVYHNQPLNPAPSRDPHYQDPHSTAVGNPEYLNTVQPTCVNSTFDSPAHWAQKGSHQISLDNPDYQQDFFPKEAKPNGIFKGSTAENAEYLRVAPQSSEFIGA

| Structure (SMILES) | IC50 [1] [µM] | melting point [°C] | further results |
| --- | --- | --- | --- |
| O=C1/C(=C/c2ccc(Br)cc2)N=C(c2ccccc2)N1c1ccc(S(=O)(=O)Nc2ncccn2)cc1 [5a, (Z)-4-(4-(4-bromobenzylidene)-5-oxo-2-phenyl-4,5-dihydro-1H-imidazole-1-yl)-N-(pyrimidin-2-yl)benzenesulfonamide] | 14.1 ± 0.68 | 290 to 292 | – |
| O=C1/C(=C/c2ccccc2O)N=C(c2ccccc2)N1c1ccc(S(=O)(=O)Nc2ncccn2)cc1 [5b, (Z)-4-(4-(2-hydroxybenzylidene)-5-oxo-2-phenyl-4,5-dihydro-1H-imidazole-1-yl)-N-(pyrimidin-2-yl)benzenesulfonamide] | 31.4 ± 1.64 | 188 to 190 | – |
| Cc1ccc(/C=C2\N=C(c3ccccc3)N(c3ccc(S(=O)(=O)Nc4ncccn4)cc3)C2=O)cc1 [5c, (Z)-4-(4-(4-methylbenzylidene)-5-oxo-2-phenyl-4,5-dihydro-1H-imidazole-1-yl)-N-(pyrimidin-2-yl)benzenesulfonamide] | 43.9 ± 2.24 | 277 to 279 | – |
| CC(=O)Oc1c(Br)cc(/C=C2\N=C(c3ccccc3)N(c3ccc(S(=O)(=O)Nc4ncccn4)cc3)C2=O)cc1Br [5d, (Z)-2,6-dibromo-4-((5-oxo-2-phenyl-1-(4-(N-pyrimidin-2-ylsulfamoyl)phenyl)-1H-imidazole-4(5H)-ylidene)methyl)phenyl acetate] | 29.4 ± 1.64 | 243 to 245 | – |
| COc1ccc(/C=C2\N=C(c3ccccc3)N(c3ccc(S(=O)(=O)Nc4ncccn4)cc3)C2=O)c(OC)c1OC [5e, (Z)-4-(5-oxo-2-phenyl-4-(2,3,4-trimethoxybenzylidene)-4,5-dihydro-1H-imidazole-1-yl)-N-(pyrimidin-2-yl)benzenesulfonamide] | 37.2 ± 1.98 | 210 to 212 | – |
| COc1ccc(C2=N/C(=C\c3ccccc3)C(=O)N2c2ccc(S(=O)(=O)Nc3ncccn3)cc2)cc1 [5f, (Z)-4-(4-benzylidene-2-(4-methoxyphenyl)-5-oxo-4,5-dihydro-1H-imidazole-1-yl)-N-(pyrimidin-2-yl)benzenesulfonamide] | 85.2 ± 4.72 | 258 to 260 | – |
| COc1ccc(C2=N/C(=C\c3ccc(F)cc3)C(=O)N2c2ccc(S(=O)(=O)Nc3ncccn3)cc2)cc1 [5g, (Z)-4-(4-(4-fluorobenzylidene)-2-(4-methoxyphenyl)-5-oxo-4,5-dihydro-1H-imidazole-1-yl)-N-(pyrimidin-2-yl)benzenesulfonamide] | 4.57 ± 0.09 | 257 to 259 | – |
| COc1ccc(C2=N/C(=C\c3ccc(Cl)cc3)C(=O)N2c2ccc(S(=O)(=O)Nc3ncccn3)cc2)cc1 [5h, (Z)-4-(4-(4-chlorobenzylidene)-2-(4-methoxyphenyl)-5-oxo-4,5-dihydro-1H-imidazole-1-yl)-N-(pyrimidin-2-yl)benzenesulfonamide] | 3.71 ± 0.2 | 262 to 264 | IC50 (EGFR-TK): 160 nM |
| COc1ccc(C2=N/C(=C\c3ccc(Br)cc3)C(=O)N2c2ccc(S(=O)(=O)Nc3ncccn3)cc2)cc1 [5i, (Z)-4-(4-(4-bromobenzylidene)-2-(4-methoxyphenyl)-5-oxo-4,5-dihydro-1H-imidazole-1-yl)-N-(pyrimidin-2-yl)benzenesulfonamide] | 9.98 ± 0.61 | 284 to 286 | – |
| COc1ccc(C2=N/C(=C\c3ccc([N+](=O)[O-])cc3)C(=O)N2c2ccc(S(=O)(=O)Nc3ncccn3)cc2)cc1 [5j, (Z)-4-(2-(4-methoxyphenyl)-4-(4-nitrobenzylidene)-5-oxo-4,5-dihydro-1H-imidazole-1-yl)-N-(pyrimidin-2-yl)benzenesulfonamide] | 3.14 ± 0.16 | > 300 | IC50 (EGFR-TK): 210 nM |
| COc1ccc(C2=N/C(=C\c3cc(Br)c(OC(C)=O)c(Br)c3)C(=O)N2c2ccc(S(=O)(=O)Nc3ncccn3)cc2)cc1 [5k, (Z)-2,6-dibromo-4-((2-(4-methoxyphenyl)-5-oxo-1-(4-(N-pyrimidin-2-ylsulfamoyl)phenyl)-1H-imidazole-4(5H)-ylidene)methyl)phenyl acetate] | 14.5 ± 0.65 | 239 to 241 | – |
| COc1ccc(C2=N/C(=C\c3cc(OC)c(OC)c(OC)c3)C(=O)N2c2ccc(S(=O)(=O)Nc3ncccn3)cc2)cc1 [5l, (Z)-4-(2-(4-methoxyphenyl)-5-oxo-4-(3,4,5-trimethoxybenzylidene)-4,5-dihydro-1H-imidazole-1-yl)-N-(pyrimidin-2-yl)benzenesulfonamide] | 25.8 ± 1.24 | 247 to 249 | – |
| O=C1/C(=C/c2ccco2)N=C(c2ccccc2)N1c1ccc(S(=O)(=O)Nc2ncccn2)cc1 [6a, (Z)-4-(4-(furan-2-ylmethylene)-5-oxo-2-phenyl-4,5-dihydro-1H-imidazole-1-yl)-N-(pyrimidin-2-yl)benzenesulfonamide] | 5.09 ± 0.31 | 291 to 293 | – |
| COc1ccc(C2=N/C(=C\c3ccco3)C(=O)N2c2ccc(S(=O)(=O)Nc3ncccn3)cc2)cc1 [6b, (Z)-4-(4-(furan-2-ylmethylene)-2-(4-methoxyphenyl)-5-oxo-4,5-dihydro-1H-imidazole-1-yl)-N-(pyrimidin-2-yl)benzenesulfonamide] | 1.05 ± 0.04 | – | Bcl-2 expression level relative to untreated control (Bcl-2): 0.28 fold; IC50 (EGFR-TK): 90 nM; MCF-7 cells in G2/M phase (MCF-7 cells [2]; control 13.7%): 10.8%; MCF-7 cells in S phase (MCF-7 cells [2]; control 35.1%): 24.3%; MCF-7 cells in G1 phase (MCF-7 cells [2]; control 51.2%): 64.9%; Bax expression level relative to untreated control (Bax): 4.54 fold; apoptosis induced in MCF-7 cells (total) (MCF-7 cells [3]): 46.1%; apoptotic cells in the late stage (upper right quadrant) (MCF-7 cells [3]; control 0.2%): 23.4%; apoptotic cells in the early stage (lower right quadrant) (MCF-7 cells [3]; control 0.6%): 22.7% |
| COc1cccc2c1C(=O)c1c(O)c3c(c(O)c1C2=O)C[C@@](O)(C(=O)CO)C[C@@H]3O[C@H]1C[C@H](N)[C@H](O)[C@H](C)O1 [Dox, doxorubicin, reference compound] | 1.91 ± 0.07 | – | – |

— publication PMC11194663, “Synthesis and biological research of new imidazolone-sulphonamide-pyrimidine hybrids as potential EGFR-TK inhibitors and apoptosis-inducing agents” (RSC Advances, 2024)
